US12281108B2, “Pyrrolidinone derivatives as formyl peptide 2 receptor agonists” (BRISTOL-MYERS SQUIBB COMPANY, priority 2018, dated 2025)

biological target: T1, human FPR2 receptors (Homo sapiens, UniProt P25090); test: FPR2 cAMP assay in CHO cells overexpressing human FPR2 (HTRF); type: cell-based; conditions: CHO cells overexpressing human FPR2; forskolin 5 μM; inhibition of cAMP production; read-out: hFPR2 cAMP2 EC50
T1 sequence (P25090 1-351): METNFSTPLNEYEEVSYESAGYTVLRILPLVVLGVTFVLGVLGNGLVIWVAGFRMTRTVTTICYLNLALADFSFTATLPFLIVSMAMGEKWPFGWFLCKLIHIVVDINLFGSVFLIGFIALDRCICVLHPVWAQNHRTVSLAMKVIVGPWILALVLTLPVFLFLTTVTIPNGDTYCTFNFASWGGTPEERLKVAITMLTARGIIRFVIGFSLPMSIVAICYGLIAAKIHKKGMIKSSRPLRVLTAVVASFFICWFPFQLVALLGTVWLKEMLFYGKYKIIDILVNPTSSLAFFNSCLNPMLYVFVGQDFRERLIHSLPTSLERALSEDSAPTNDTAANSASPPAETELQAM
Source text: N-formyl peptide receptors (FPRs) are a family of chemo attractant receptors that facilitate leukocyte response during inflammation. FPRs belong to the seven-transmembrane G protein-coupled receptor superfamily and are linked to inhibitory G-proteins (Gi). Three family members (FPR1, FPR2 and FPR3) have been identified in humans and are predominantly found in myeloid cells with varied distribution and have also been reported in multiple organs and tissues. After agonist binding, the FPRs activate a multitude of physiological pathways, such as intra cellular signaling transduction, Ca^2+ mobilization and transcription. The family interacts with a diverse set of ligands that includes proteins, polypeptides and fatty acid metabolites which activate both pro-inflammatory and pro-resolution downstream responses. FPR2 and FPR1 Cyclic Adenosine Monophosphate (cAMP) Assays were used to measure the in vitro activity of the compounds disclosed in this application.
FPR2 and FPR1 Cyclic Adenosine Monophosphate (cAMP) Assays. A mixture of forskolin (5 μM final for FPR2 or 10 μM final for FPR1) and IBMX (200 μM final) were added to 384-well Proxiplates (Perkin-Elmer) pre-dotted with test compounds in DMSO (1% final) at final concentrations in the range of 0.020 nM to 100 μM. Chinese Hamster Ovary cells (CHO) overexpressing human FPR1 or human FPR2 receptors were cultured in F-12 (Ham's) medium supplemented with 10% qualified FBS, 250 μg/ml zeocin and 300 μg/ml hygromycin (Life Technologies). Reactions were initiated by adding 2,000 human FPR2 cells per well or 4,000 human FPR1 cells per well in Dulbecco's PBS (with calcium and magnesium) (Life Technologies) supplemented with 0.1% BSA (Perkin-Elmer). The reaction mixtures were incubated for 30 min at room temperature. The level of intracellular cAMP was determined using the HTRF HiRange cAMP assay reagent kit (Cisbio) according to manufacturer's instruction. Solutions of cryptate conjugated anti-cAMP and d2 flurorophore-labelled cAMP were made in a supplied lysis buffer separately. Upon completion of the reaction, the cells were lysed with equal volume of the d2-cAMP solution and anti-cAMP solution. After a 1-h room temperature incubation, time-resolved fluorescence intensity was measured using the Envision (Perkin-Elmer) at 400 nm excitation and dual emission at 590 nm and 665 nm. A calibration curve was constructed with an external cAMP standard at concentrations ranging from 1 μM to 0.1 pM by plotting the fluorescent intensity ratio from 665 nm emission to the intensity from the 590 nm emission against cAMP concentrations. The potency and activity of a compound to inhibit cAMP production was then determined by fitting to a 4-parametric logistic equation from a plot of cAMP level versus compound concentrations.

EC50 [nM] | SMILES
10 | COc1cc(F)c([C@@H]2CNC(=O)[C@H]2Nc2cc(-c3ccc(Cl)cc3)on2)c(F)c1 [Example 21, (3S,4R)-3-{[5-(4-chlorophenyl)-1,2-oxazol-3-yl]amino}-4-(2,6-difluoro-4-methoxyphenyl)pyrrolidin-2-one]

same assay, conditions: hFPR2 assay; potency bins; read-out: hFPR2 agonist activity EC50

SMILES | EC50 [nM]
COc1cc(F)c([C@@H]2CNC(=O)[C@H]2Nc2nnc(C3CCC(F)(F)CC3)o2)c(F)c1 [Example 25, (3S,4R)-4-(2,6-difluoro-4-methoxyphenyl)-3-{[5-(4,4-difluorocyclohexyl)-1,3,4-oxadiazol-2-yl]amino}pyrrolidin-2-one] | 150 to 1000
COc1cc(F)c([C@@H]2CNC(=O)[C@H]2Nc2nnc(C3CC3c3cc(F)cc(F)c3)o2)c(F)c1 (stereo partly drawn) [Example 42, (3S,4R)-4-(2,6-difluoro-4-methoxyphenyl)-3-({5-[2-(3,5-difluorophenyl)cyclopropyl]-1,3,4-oxadiazol-2-yl}amino)pyrrolidin-2-one] | 40 to 150
COc1cc(F)c([C@@H]2CNC(=O)[C@H]2Nc2nnc(-c3ccc(F)cc3)o2)c(F)c1 [Example 12, (3S,4R)-4-(2,6-difluoro-4-methoxyphenyl)-3-{[5-(4-fluorophenyl)-1,3,4-oxadiazol-2-yl]amino}pyrrolidin-2-one] | 40 to 150
COc1cc(F)c([C@@H]2CNC(=O)[C@H]2Nc2nnc(-c3cccnc3)o2)c(F)c1 [Example 6, (3S,4R)-4-(2,6-difluoro-4-methoxyphenyl)-3-{[5-(pyridin-3-yl)-1,3,4-oxadiazol-2-yl]amino}pyrrolidin-2-one] | 150 to 1000
COc1cc(F)c([C@@H]2CNC(=O)[C@H]2Nc2nnc(-c3ccc(F)c(F)c3)o2)c(F)c1 [Example 5, (3S,4R)-4-(2,6-difluoro-4-methoxyphenyl)-3-{[5-(3,4-difluorophenyl)-1,3,4-oxadiazol-2-yl]amino}pyrrolidin-2-one] | 150 to 1000
COc1cc(F)c([C@@H]2CNC(=O)[C@H]2Nc2nnc(-c3ccc(C#N)cc3)o2)c(F)c1 [Example 9, 4-(5-{[(3S,4R)-4-(2,6-difluoro-4-methoxyphenyl)-2-oxopyrrolidin-3-yl]amino}-1,3,4-oxadiazol-2-yl)benzonitrile] | 150 to 1000
COc1cc(F)c([C@@H]2CNC(=O)[C@H]2Nc2nnc(C3CC3c3ccccc3OC)o2)c(F)c1 (stereo partly drawn) [Example 44, (3S,4R)-4-(2,6-difluoro-4-methoxyphenyl)-3-({5-[2-(2-methoxyphenyl)cyclopropyl]-1,3,4-oxadiazol-2-yl}amino)pyrrolidin-2-one] | 40 to 150
COc1cc(F)c([C@@H]2CNC(=O)[C@H]2Nc2nnc(-c3ccc(OC(F)(F)F)cc3)o2)c(F)c1 [Example 7, (3S,4R)-4-(2,6-difluoro-4-methoxyphenyl)-3-({5-[4-(trifluoromethoxy)phenyl]-1,3,4-oxadiazol-2-yl}amino)pyrrolidin-2-one] | 40 to 150
COc1cc(F)c([C@@H]2CNC(=O)[C@H]2Nc2nnc(-c3ccc(C(F)(F)F)cn3)o2)c(F)c1 [Example 14, (3S,4R)-4-(2,6-difluoro-4-methoxyphenyl)-3-({5-[5-(trifluoromethyl)pyridin-2-yl]-1,3,4-oxadiazol-2-yl}amino)pyrrolidin-2-one] | 150 to 1000
COc1cc(F)c([C@@H]2CNC(=O)[C@H]2Nc2nnc(C(=O)NCc3ccc(Cl)cc3)o2)c(F)c1 [Example 53, N-[(4-chlorophenyl)methyl]-5-{[(3S,4R)-4-(2,6-difluoro-4-methoxyphenyl)-2-oxopyrrolidin-3-yl]amino}-1,3,4-oxadiazole-2-carboxamide] | 40 to 150
COc1cc(F)c([C@@H]2CNC(=O)[C@H]2Nc2nnc(-c3ccc(Oc4cc(C#N)ccn4)cc3)o2)c(F)c1 [Example 48, 2-[4-(5-{[(3S,4R)-4-(2,6-difluoro-4-methoxyphenyl)-2-oxopyrrolidin-3-yl]amino}-1,3,4-oxadiazol-2-yl)phenoxy]pyridine-4-carbonitrile] | 40 to 150
COc1cc(F)c([C@@H]2CNC(=O)[C@H]2Nc2nnc(-c3ccc(Oc4cncc(C)n4)cc3)o2)c(F)c1 [Example 63, (3S,4R)-4-(2,6-difluoro-4-methoxyphenyl)-3-[(5-{4-[(6-methylpyrazin-2-yl)oxy]phenyl}-1,3,4-oxadiazol-2-yl)amino]pyrrolidin-2-one] | 40 to 150
COc1cc(F)c([C@@H]2CNC(=O)[C@H]2Nc2nnc(-c3ccc(Cl)nc3)s2)c(F)c1 [Example 31, (3S,4R)-3-{[5-(6-chloropyridin-3-yl)-1,3,4-thiadiazol-2-yl]amino}-4-(2,6-difluoro-4-methoxyphenyl)pyrrolidin-2-one] | 40 to 150
COc1cc(F)c([C@@H]2CNC(=O)[C@H]2Nc2ncc(-c3ccc(Cl)cc3)o2)c(F)c1 [Example 24, (3S,4R)-3-{[5-(4-chlorophenyl)-1,3-oxazol-2-yl]amino}-4-(2,6-difluoro-4-methoxyphenyl)pyrrolidin-2-one] | 150 to 1000
COc1cc(F)c([C@@H]2CNC(=O)[C@H]2Nc2nnc(-c3ccc(Oc4ncccc4C#N)cc3)o2)c(F)c1 [Example 66, 2-[4-(5-{[(3S,4R)-4-(2,6-difluoro-4-methoxyphenyl)-2-oxopyrrolidin-3-yl]amino}-1,3,4-oxadiazol-2-yl)phenoxy]pyridine-3-carbonitrile] | 40 to 150
COc1cc(F)c([C@@H]2CNC(=O)[C@H]2Nc2nnc(-c3ccccc3)o2)c(F)c1 [Example 4, (3S,4R)-4-(2,6-difluoro-4-methoxyphenyl)-3-[(5-phenyl-1,3,4-oxadiazol-2-yl)amino]pyrrolidin-2-one] | 150 to 1000

Other lines, results leading:

EC50 [nM] | SMILES
40 to 150 | COc1cc(F)c([C@@H]2CNC(=O)[C@H]2Nc2nnc(-c3ccc(F)cc3)s2)c(F)c1 [Example 32, (3S,4R)-4-(2,6-difluoro-4-methoxyphenyl)-3-{[5-(4-fluorophenyl)-1,3,4-thiadiazol-2-yl]amino}pyrrolidin-2-one]
≤ 40 | COc1cc(F)c([C@@H]2CNC(=O)[C@H]2Nc2cc(-c3ccc(OC(F)(F)F)cc3)on2)c(F)c1 [Example 23, (3S,4R)-4-(2,6-difluoro-4-methoxyphenyl)-3-({5-[4-(trifluoromethoxy)phenyl]-1,2-oxazol-3-yl}amino)pyrrolidin-2-one]
≤ 40 | COc1cc(F)c([C@@H]2CNC(=O)[C@H]2Nc2nnc(-c3ccc(Oc4cccc(F)n4)cc3)o2)c(F)c1 [Example 64, (3S,4R)-4-(2,6-difluoro-4-methoxyphenyl)-3-[(5-{4-[(6-fluoropyridin-2-yl)oxy]phenyl}-1,3,4-oxadiazol-2-yl)amino]pyrrolidin-2-one]
≤ 40 | COc1cc(F)c([C@@H]2CNC(=O)[C@H]2Nc2nnc(C3CC3c3ccc(Cl)cc3)o2)c(F)c1 (stereo partly drawn) [Example 41, (3S,4R)-3-({5-[2-(4-chlorophenyl)cyclopropyl]-1,3,4-oxadiazol-2-yl}amino)-4-(2,6-difluoro-4-methoxyphenyl)pyrrolidin-2-one]
≤ 40 | COc1cc(F)c([C@@H]2CNC(=O)[C@H]2Nc2nnc(-c3ccc(C(F)(F)F)cc3)o2)c(F)c1 [Example 8, (3S,4R)-4-(2,6-difluoro-4-methoxyphenyl)-3-({5-[4-(trifluoromethyl)phenyl]-1,3,4-oxadiazol-2-yl}amino)pyrrolidin-2-one]
≤ 40 | COc1cc(F)c([C@@H]2CNC(=O)[C@H]2Nc2nnc(-c3ccc(Cl)cc3)s2)c(F)c1 [Example 2, (3S,4R)-3-{[5-(4-chlorophenyl)-1,3,4-thiadiazol-2-yl]amino}-4-(2,6-difluoro-4-methoxyphenyl)pyrrolidin-2-one]
≤ 40 | COc1cc(F)c([C@@H]2CNC(=O)[C@H]2Nc2nnc(-c3ccc(Oc4ccc(Cl)cc4)cc3)o2)c(F)c1 [Example 40, (3S,4R)-3-({5-[4-(4-chlorophenoxy)phenyl]-1,3,4-oxadiazol-2-yl}amino)-4-(2,6-difluoro-4-methoxyphenyl)pyrrolidin-2-one]
